Data as given in PubChem BioAssay (NCI).
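Five compound concentrations were applied to cells in 96-well plates for 48 hours; endpoints were derived by simple linear interpolation of the resulting dose-response curve. The concentration for full growth arrest is given as TGI.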

Legend:
Assay in all cases: inhibition of tumour cell growth, NCI panel, 48 h
BT-549 breast = test system: BT-549 breast
MDA-MB-435 = test system: MDA-MB-435
A549 NSCLC = test system: A549 NSCLC
SNB-75 CNS = test system: SNB-75 CNS
SR leukemia = test system: SR leukemia
HCT-15 colon = test system: HCT-15 colon
RXF 393 renal = test system: RXF 393 renal
IGROV1 ovarian = test system: IGROV1 ovarian
HCC-2998 colon = test system: HCC-2998 colon
NCI-H226 lung = test system: NCI-H226 lung
MDA-N = test system: MDA-N
COLO 205 colon = test system: COLO 205 colon
MOLT-4 leukemia = test system: MOLT-4 leukemia
SK-OV-3 ovarian = test system: SK-OV-3 ovarian
786-0 renal = test system: 786-0 renal
MCF7 breast = test system: MCF7 breast
EKVX NSCLC = test system: EKVX NSCLC

Compound	TGI (BT-549 breast)	TGI (MDA-MB-435)	TGI (A549 NSCLC)	TGI (SNB-75 CNS)	TGI (SR leukemia)	TGI (HCT-15 colon)	TGI (RXF 393 renal)	TGI (IGROV1 ovarian)	TGI (HCC-2998 colon)	TGI (NCI-H226 lung)	TGI (MDA-N)	TGI (COLO 205 colon)	TGI (MOLT-4 leukemia)	TGI (SK-OV-3 ovarian)	TGI (786-0 renal)	TGI (MCF7 breast)	TGI (EKVX NSCLC)
O=C1CCCN1C(=O)CS(=O)(=O)c1ccccc1	> 100 µM	> 100 µM	> 100 µM	> 100 µM	> 100 µM	> 100 µM	> 100 µM	> 100 µM	> 100 µM	> 100 µM	> 100 µM	> 100 µM	> 100 µM	> 100 µM	> 100 µM		
O=C1OCC2OC(=O)c3cc(O)c(O)c(O)c3-c3c(O)c(O)c(O)c4c3C(=O)OC(C2OC(=O)c2cc(O)c(O)c(O)c2-c2c1cc(O)c(O)c2O)C1OC(=O)c2c-4c(O)c(O)c(O)c2[C@@H]1C(O)C(O)C(O)C(O)CO (stereo not given in full)	55.2 µM	21.9 µM	43.7 µM		> 100 µM	37.7 µM	34.3 µM	40.6 µM	64.2 µM	42.6 µM	25.5 µM	30.4 µM	49.8 µM	59 µM	34.7 µM	17.6 µM	51.1 µM
O=c1[nH]cc(-c2c[nH]c3ccccc23)nc1-c1c[nH]c2ccccc12	28.7 µM	14 µM	> 100 µM	23.7 µM		23.7 µM	10.3 µM	14.6 µM	21.6 µM		9.44 µM	23.2 µM		26.2 µM	23.5 µM	54.7 µM	24.6 µM
COc1cc(/C=C/c2nc(NC(=S)Nc3ccccc3)nnc2C)cc(OC)c1OC	89 µM	> 100 µM	> 100 µM		> 100 µM	37.1 µM	66.8 µM	93.7 µM	26.4 µM	81.4 µM	> 100 µM	32.2 µM	> 100 µM	> 100 µM	> 100 µM	> 100 µM	> 100 µM
COC1/C=C/C(C)C(C(C)C(OC)C(C)CCC(=O)C(C)C(C/C=C/N(C)C=O)OC)OC(=O)C=CC2OC2(C)CC(OC)C(OC)C2=CC(=O)O[C@@H](C(C)C(OC)CC(OC)/C=C/C(C)C(O)C1)[C@H]2O (stereo not given in full)	0.0907 µM	> 1.24 µM	0.0384 µM				0.0473 µM	0.00369 µM	0.0584 µM	0.0164 µM	0.103 µM			0.0667 µM	0.0176 µM	> 0.286 µM	0.0163 µM
NC(N)=NCC[C@H](NC(=O)OCCCCCn1ccc(=O)[nH]c1=O)C(=O)O	> 100 µM	> 100 µM	> 100 µM	> 100 µM		> 100 µM	> 100 µM		> 100 µM	> 100 µM	> 100 µM	> 100 µM	> 100 µM	> 100 µM	> 100 µM	> 100 µM	> 100 µM
Cc1n[nH]c(=O)n1N1C(=O)CCCC1=O	> 100 µM	> 100 µM	> 100 µM	> 100 µM			> 100 µM	> 100 µM	> 100 µM	> 100 µM	> 100 µM	> 100 µM	62.8 µM	> 100 µM	> 100 µM	> 100 µM	> 100 µM
CC1(C)C=Cc2c(cc(O)c3c(=O)c4cc(Cl)ccc4[nH]c23)O1	8.06 µM	> 10 µM	> 10 µM	> 10 µM	> 10 µM	> 10 µM	> 10 µM	> 10 µM	> 10 µM		8.58 µM	> 10 µM	8.22 µM	> 10 µM	> 10 µM	> 10 µM	> 10 µM
COc1cc2c(c(OC)c1)/C(=C/Sc1ccccc1)C(=O)N(C(C)(C)C)C2	83 µM	55.2 µM			66.7 µM	91.9 µM		82.8 µM	> 100 µM	> 100 µM	73 µM	50.6 µM	> 100 µM	76.9 µM	> 100 µM	96.3 µM	> 100 µM
C=CCC1(OCc2ccccc2)C(=O)C(=O)OC1C1COC(C)(C)O1 (stereo not given)	> 100 µM	> 100 µM	> 100 µM	> 100 µM	> 100 µM	> 100 µM	> 100 µM		> 100 µM	> 100 µM	> 100 µM	> 100 µM	> 100 µM	> 100 µM	> 100 µM	> 100 µM	> 100 µM
Cn1c(=O)c2c(nc3n2CC(=O)N3CCCCl)n(C)c1=O	> 100 µM	> 100 µM	> 100 µM	> 100 µM		> 100 µM		> 100 µM	> 100 µM	> 100 µM	> 100 µM	> 100 µM	> 100 µM	> 100 µM	> 100 µM	> 100 µM	> 100 µM
CC(=O)C1C(=O)C(=O)N(c2cccc([N+](=O)[O-])c2)C1=O (stereo not given)	> 100 µM	> 100 µM	> 100 µM	> 100 µM		> 100 µM	> 100 µM	> 100 µM	> 100 µM	> 100 µM	> 100 µM	> 100 µM	> 100 µM	> 100 µM	> 100 µM	> 100 µM	> 100 µM
CNC(=O)C1(N)c2ccccc2C=Cc2ccccc21	> 100 µM	> 100 µM	> 100 µM		> 100 µM	> 100 µM		> 100 µM		> 100 µM	> 100 µM	> 100 µM	> 100 µM	> 100 µM	> 100 µM	> 100 µM	> 100 µM
COc1ccc(C2SCC(=O)N2c2ccc(-c3ccc(-n4c(-c5ccccc5)nc5ccccc5c4=O)cc3)cc2)cc1OC (stereo not given)	51.1 µM	> 100 µM	> 100 µM	> 100 µM	> 100 µM	> 100 µM	> 100 µM	> 100 µM		> 100 µM	> 100 µM	> 100 µM	> 100 µM	> 100 µM	> 100 µM	> 100 µM	> 100 µM
C/C(=N\Nc1ccc([N+](=O)[O-])cc1[N+](=O)[O-])c1sc(-n2nc(-c3ccccc3)cc2-c2ccccc2)nc1C	> 100 µM	> 100 µM		> 100 µM	46.8 µM	> 100 µM		> 100 µM	> 100 µM	> 100 µM	> 100 µM	67.4 µM	46.8 µM	> 100 µM	> 100 µM	> 100 µM	> 100 µM
